# Reference: paper PMC12528448, “Resistance to CDK7 inhibitors directed by acquired mutation of a conserved residue in cancer cells” (The EMBO Journal, 2025)
# Values joined by “and” are separate entries in the source; they are usually repeats but may differ in a detail not shown here. Equal entries are not always repeated.
# Legend:
# Type in all cases: cell-based, human
# [1] = tested on: PolII Ser2 phosphorylation, CCNK and CDK12 levels in MCF7-CDK12-D819N cells; experiment: Immunoblotting after CDK12 drugs, MCF7-CDK12-D819N; conditions: 6 h, immunoblot
# Experimental: (§1) Whole-cell lysates were prepared in RIPA buffer (Sigma-Aldrich), supplemented with protease and phosphatase inhibitor cocktails (Roche). Protein sample concentrations were determined using the Pierce BCA Protein Assay kit (ThermoFisher Scientific). In all, 10–20 µg of total protein was loaded for each sample and resolved on 4–15% Mini-PROTEAN TGX Precast Protein Gels (BIO-RAD). Immunoblotting was performed as described (Patel et al, [2018]), using antibodies diluted 1:1000 for P-CDK2 (Thr160; 2561S), CDK2 (2546S), P-Rb (Ser807/811; 9308), Rb (9309), CDK7 (2916) and CDK12 (11973S), from Cell Signalling Technology. PolII CTD phosphorylation antibodies (P-Ser2 (ab5095) and P-Ser5 (ab5131), used at 1:10,000 dilution), as well as total PolII (ab817; 1:2000 dilution) and β-actin (ab6276; 1:100,000 dilution) were purchased from Abcam. CCNK antibody (Thermofisher A301-939A) was used at a 1:1000 dilution. Band intensities were quantified using ImageJ (Schneider et al, [2012]).
# [2] = tested on: MCF7 CDK12-D819N mutant cells; experiment: Growth assay (SRB), MCF7 CDK12-D819N knock-in; conditions: for % Growth: MCF7 CDK12 D819N, biological reps
# Experimental: (§2) To determine the IC50 of drug treatments on growth, cells were seeded in 96-well culture plates. Two days after seeding, the cells were treated with increasing concentrations of drugs and incubated for 4 days. Cell number was determined using the SRB assay (Skehan et al, [1990]), and IC50 values were calculated using non-linear regression curve fitting in GraphPad Prism v10. For all other growth experiments, cells were seeded into 96-well plates, and appropriate drugs were added 2 days after seeding. Cells were then incubated in an IncuCyte Zoom live-cell imager, with cell confluency measured every 6 h. Cell doubling times were determined by non-linear curve fitting (exponential growth equation) in GraphPad Prism v10.
# Alt-R^TM S.p. Cas9 nuclease V3, Alt-R CRISPR-Cas9 crRNA, TracrRNA and the donor templates were obtained from Integrated DNA Technologies. […] Cells were treated with 0.7 µM of Alt-R HDR Enhancer V2 to improve HRD efficiency. Sequences of the CRISPRs in the crRNA and the donor templates are shown in the Reagents and tools table. Donor templates were designed to include non-coding substitutions to aid genome DNA PCR for identifying knock-in events and to facilitate cloning; these substitutions are noted in the Reagents and tools table.
# [3] = tested on: MCF7 cells; experiment: Growth assay (SRB), MCF7; conditions: for % Growth: biological reps
# Experimental: as §2
# [4] = tested on: PolII Ser2 phosphorylation, cyclin K and CDK12 levels in MCF7 cells; experiment: Immunoblotting after CDK12 drugs, MCF7; conditions: WT MCF7; 6 h; immunoblot
# Experimental: as §1
smiles,measurement,setting,value
CC[C@H](CO)Nc1nc(NCc2ccc(-c3ccccn3)cc2)c2ncn(C(C)C)c2n1 [(R)-CR8],CCNK and CDK12 levels,[1],not reduced
same,PolII phosphorylation,[1],not inhibited
same,Fold Resistance,[2]; MCF7 CDK12-D819N vs MCF7,12.6 fold
same,IC50,"[2]; MCF7 CDK12-D819N, SRB",1060 nM
same,% Growth,[2]; Log10 Conc. (nM) 0.09,94.80% and 70.33% and 88.48%
same,% Growth,[2]; Log10 Conc. (nM) 0.69,98.42% and 96.39% and 105.30%
same,% Growth,[2]; Log10 Conc. (nM) 1.29,84.25% and 91.23% and 97.75%
same,% Growth,[2]; Log10 Conc. (nM) 1.89,95.93% and 89.18% and 103.58%
same,% Growth,[2]; Log10 Conc. (nM) 2.49,84.48% and 84.10% and 82.39%
same,% Growth,[2]; Log10 Conc. (nM) -0.52,97.14% and 75.33% and 99.34%
same,% Growth,[2]; Log10 Conc. (nM) -1.12,97.97% and 74.35% and 85.17%
same,IC50,"[3]; 4 days, SRB",84.5 nM
same,% Growth,"[3]; Log10 Conc. (nM) 0.09, 4 days",113.64% and 90.46% and 92.99%
same,% Growth,"[3]; Log10 Conc. (nM) 0.69, 4 days",122.04% and 94.84% and 85.58%
same,% Growth,"[3]; Log10 Conc. (nM) 1.29, 4 days",76.32% and 89.54% and 75.98%
same,% Growth,"[3]; Log10 Conc. (nM) 1.89, 4 days",57.39% and 71.11% and 59.97%
same,% Growth,"[3]; Log10 Conc. (nM) -0.52, 4 days",115.95% and 88.99% and 104.00%
same,% Growth,"[3]; Log10 Conc. (nM) -1.12, 4 days",101.40% and 88.53% and 107.01%
same,Levels of cyclin K and CDK12,[4],reduced
same,PolII Ser2 phosphorylation,[4],reduced
